Measured values taken from the kinase profiling compilation of Christmann-Franck et al. (2016).

Key:
Experiment in all cases: KINOMEscan competition binding
Settings in all cases: compound 10.0 µM
CAMKK2 (human) = CAMKK2 (human) (UniProt Q96RR4)
CDC42BPG (human) = CDC42BPG (human) (UniProt Q6DT37)
DCLK1 (human) = DCLK1 (human) (UniProt O15075)
DCLK2 (human) = DCLK2 (human) (UniProt Q8N568)
GAK (human) = GAK (human) (UniProt O14976)
LIMK2 (human) = LIMK2 (human) (UniProt P53671)
MAPK7 (human) = MAPK7 (human) (UniProt Q13164)
MYLK (human) = MYLK (human) (UniProt Q15746)
PLK1 (human) = PLK1 (human) (UniProt P53350)
PLK3 (human) = PLK3 (human) (UniProt Q9H4B4)
ROS1 (human) = ROS1 (human) (UniProt P08922)
SLK (human) = SLK (human) (UniProt Q9H2G2)
STK33 (human) = STK33 (human) (UniProt Q9BYT3)
TNK1 (human) = TNK1 (human) (UniProt Q13470)
TTK (human) = TTK (human) (UniProt P33981)
IGF1R (human) = IGF1R (human) (UniProt P08069)
LATS1 (human) = LATS1 (human) (UniProt O95835)
MAP2K3 (human) = MAP2K3 (human) (UniProt P46734)
MYO3B (human) = MYO3B (human) (UniProt Q8WXR4)
PAK1 (human) = PAK1 (human) (UniProt Q13153)
PAK1 (human), sequence (Q13153 whole entry, looked up): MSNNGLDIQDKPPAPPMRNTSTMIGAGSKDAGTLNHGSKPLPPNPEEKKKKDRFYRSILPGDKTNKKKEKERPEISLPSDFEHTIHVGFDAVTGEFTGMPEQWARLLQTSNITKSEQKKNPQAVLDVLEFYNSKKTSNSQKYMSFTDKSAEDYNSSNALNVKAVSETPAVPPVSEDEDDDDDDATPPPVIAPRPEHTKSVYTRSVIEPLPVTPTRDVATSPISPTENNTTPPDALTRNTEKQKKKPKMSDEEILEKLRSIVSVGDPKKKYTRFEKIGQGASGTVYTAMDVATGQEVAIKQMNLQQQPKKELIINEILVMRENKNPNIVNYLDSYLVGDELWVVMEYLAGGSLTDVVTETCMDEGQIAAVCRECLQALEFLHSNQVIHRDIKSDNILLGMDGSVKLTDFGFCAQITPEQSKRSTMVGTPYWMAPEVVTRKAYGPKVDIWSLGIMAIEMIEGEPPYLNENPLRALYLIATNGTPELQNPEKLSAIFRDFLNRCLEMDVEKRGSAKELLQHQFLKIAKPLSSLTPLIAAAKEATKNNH

MYO3B (human), sequence (Q8WXR4 whole entry, looked up): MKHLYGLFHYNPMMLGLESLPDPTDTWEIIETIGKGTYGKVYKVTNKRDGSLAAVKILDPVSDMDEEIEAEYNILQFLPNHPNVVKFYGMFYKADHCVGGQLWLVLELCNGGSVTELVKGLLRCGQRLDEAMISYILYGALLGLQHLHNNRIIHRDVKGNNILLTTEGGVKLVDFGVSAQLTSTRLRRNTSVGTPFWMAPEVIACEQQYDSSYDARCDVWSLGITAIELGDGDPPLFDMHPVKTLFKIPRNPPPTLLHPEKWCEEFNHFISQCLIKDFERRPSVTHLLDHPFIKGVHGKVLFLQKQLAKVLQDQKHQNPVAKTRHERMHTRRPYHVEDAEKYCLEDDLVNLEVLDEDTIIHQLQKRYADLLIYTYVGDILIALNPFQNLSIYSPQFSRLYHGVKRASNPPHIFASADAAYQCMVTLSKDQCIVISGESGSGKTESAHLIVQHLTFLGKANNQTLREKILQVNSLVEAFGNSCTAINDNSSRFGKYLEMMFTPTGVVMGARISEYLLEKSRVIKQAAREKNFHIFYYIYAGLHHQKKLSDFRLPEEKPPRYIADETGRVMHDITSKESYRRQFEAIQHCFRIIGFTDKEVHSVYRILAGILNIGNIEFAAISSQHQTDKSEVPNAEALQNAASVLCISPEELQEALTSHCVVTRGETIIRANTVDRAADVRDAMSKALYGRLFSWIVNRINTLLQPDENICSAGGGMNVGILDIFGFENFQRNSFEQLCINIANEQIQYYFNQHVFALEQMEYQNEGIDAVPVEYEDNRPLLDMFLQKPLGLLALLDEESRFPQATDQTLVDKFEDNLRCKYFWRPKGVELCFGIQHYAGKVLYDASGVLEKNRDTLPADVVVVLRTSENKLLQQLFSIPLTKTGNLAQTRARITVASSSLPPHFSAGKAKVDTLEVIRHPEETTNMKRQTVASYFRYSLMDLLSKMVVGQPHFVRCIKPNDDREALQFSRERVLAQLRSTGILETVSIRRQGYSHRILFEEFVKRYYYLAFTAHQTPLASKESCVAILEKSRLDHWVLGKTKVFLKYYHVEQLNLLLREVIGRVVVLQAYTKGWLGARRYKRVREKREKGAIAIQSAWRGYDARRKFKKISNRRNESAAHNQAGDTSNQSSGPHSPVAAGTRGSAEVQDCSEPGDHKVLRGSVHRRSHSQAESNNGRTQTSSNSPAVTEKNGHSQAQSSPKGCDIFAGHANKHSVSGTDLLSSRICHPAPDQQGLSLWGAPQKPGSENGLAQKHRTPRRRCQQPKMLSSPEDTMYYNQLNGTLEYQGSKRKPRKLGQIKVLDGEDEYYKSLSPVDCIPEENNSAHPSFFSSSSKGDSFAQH
MAP2K3 (human), sequence (P46734 whole entry, looked up): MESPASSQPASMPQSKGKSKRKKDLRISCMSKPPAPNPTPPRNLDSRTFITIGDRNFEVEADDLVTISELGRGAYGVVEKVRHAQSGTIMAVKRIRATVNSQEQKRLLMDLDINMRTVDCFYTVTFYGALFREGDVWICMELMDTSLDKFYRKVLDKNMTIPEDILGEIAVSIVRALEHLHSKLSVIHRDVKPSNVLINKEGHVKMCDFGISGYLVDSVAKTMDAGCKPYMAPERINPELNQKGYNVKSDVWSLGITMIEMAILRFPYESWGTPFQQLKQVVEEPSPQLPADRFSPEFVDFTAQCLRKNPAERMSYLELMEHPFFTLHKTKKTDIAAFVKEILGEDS
MYLK (human), sequence (Q15746 whole entry, looked up): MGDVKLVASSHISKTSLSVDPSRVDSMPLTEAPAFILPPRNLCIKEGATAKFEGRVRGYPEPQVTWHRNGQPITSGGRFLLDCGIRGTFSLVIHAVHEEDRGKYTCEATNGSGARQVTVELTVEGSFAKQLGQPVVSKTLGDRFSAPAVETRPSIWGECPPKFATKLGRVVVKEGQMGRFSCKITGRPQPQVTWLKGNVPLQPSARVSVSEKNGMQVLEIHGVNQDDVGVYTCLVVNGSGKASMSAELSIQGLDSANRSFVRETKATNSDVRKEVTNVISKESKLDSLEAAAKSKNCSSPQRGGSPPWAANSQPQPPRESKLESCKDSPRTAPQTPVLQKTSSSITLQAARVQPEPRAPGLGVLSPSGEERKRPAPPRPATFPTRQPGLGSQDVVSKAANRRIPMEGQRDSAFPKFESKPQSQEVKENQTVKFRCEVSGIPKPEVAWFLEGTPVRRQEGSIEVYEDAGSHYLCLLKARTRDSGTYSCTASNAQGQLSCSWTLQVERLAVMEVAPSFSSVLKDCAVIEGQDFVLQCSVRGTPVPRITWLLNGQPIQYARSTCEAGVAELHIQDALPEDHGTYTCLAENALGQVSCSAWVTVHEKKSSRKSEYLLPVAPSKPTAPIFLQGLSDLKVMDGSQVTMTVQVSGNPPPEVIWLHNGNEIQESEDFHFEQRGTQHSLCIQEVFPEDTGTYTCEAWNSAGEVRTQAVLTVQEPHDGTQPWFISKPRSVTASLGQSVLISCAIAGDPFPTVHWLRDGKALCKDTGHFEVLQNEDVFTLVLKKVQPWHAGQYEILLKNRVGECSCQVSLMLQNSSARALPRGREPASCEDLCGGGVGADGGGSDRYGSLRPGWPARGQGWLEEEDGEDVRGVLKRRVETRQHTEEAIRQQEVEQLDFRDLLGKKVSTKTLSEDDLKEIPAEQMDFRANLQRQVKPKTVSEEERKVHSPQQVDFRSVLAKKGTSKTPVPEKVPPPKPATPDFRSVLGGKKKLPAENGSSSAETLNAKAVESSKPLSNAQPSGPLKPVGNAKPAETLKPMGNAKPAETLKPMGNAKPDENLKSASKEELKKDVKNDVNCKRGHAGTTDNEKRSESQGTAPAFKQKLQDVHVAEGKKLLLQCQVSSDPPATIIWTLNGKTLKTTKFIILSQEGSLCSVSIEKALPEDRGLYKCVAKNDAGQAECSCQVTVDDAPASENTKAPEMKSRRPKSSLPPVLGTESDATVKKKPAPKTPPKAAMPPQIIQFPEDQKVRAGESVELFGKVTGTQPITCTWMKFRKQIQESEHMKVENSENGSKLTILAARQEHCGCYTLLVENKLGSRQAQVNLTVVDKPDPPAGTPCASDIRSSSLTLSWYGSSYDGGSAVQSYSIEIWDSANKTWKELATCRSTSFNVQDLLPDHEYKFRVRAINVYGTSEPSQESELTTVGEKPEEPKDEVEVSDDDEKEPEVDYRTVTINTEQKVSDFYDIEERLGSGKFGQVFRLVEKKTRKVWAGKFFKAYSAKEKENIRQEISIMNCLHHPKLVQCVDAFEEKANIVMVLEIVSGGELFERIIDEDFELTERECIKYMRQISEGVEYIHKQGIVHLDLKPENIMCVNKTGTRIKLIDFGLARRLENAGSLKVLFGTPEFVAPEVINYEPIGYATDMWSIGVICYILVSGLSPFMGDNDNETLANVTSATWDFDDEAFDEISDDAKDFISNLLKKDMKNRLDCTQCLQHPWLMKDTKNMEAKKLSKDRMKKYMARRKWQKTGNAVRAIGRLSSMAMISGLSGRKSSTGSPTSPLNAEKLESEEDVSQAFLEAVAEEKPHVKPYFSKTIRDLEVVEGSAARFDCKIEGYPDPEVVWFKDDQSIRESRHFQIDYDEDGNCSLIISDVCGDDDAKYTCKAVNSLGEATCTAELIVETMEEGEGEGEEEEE
MAPK7 (human), sequence (Q13164 whole entry, looked up): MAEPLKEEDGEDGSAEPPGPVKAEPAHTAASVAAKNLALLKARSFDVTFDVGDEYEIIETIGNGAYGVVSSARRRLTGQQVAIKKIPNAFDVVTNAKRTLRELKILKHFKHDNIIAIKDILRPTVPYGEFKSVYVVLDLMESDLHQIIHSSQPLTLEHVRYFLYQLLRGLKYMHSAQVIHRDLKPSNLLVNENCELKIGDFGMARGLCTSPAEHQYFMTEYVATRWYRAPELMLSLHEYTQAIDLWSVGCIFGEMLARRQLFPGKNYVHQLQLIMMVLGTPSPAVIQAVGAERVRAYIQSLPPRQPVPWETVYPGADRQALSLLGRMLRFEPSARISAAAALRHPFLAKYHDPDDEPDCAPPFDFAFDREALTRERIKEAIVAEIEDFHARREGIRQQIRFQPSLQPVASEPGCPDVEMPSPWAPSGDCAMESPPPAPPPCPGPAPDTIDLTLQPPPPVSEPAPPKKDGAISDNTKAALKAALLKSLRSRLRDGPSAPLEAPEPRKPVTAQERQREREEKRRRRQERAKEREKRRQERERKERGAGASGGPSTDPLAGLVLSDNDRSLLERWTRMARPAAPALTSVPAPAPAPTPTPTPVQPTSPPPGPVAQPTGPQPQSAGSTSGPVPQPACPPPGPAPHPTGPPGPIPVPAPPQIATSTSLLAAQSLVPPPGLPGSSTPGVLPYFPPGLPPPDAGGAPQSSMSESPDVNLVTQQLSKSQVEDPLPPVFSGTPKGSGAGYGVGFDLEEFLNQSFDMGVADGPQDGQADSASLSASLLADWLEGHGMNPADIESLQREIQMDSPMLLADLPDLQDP

| SMILES | kinase still bound, per cent of control (CAMKK2 (human)) [%] | kinase still bound, per cent of control (CDC42BPG (human)) [%] | kinase still bound, per cent of control (DCLK1 (human)) [%] | kinase still bound, per cent of control (DCLK2 (human)) [%] | kinase still bound, per cent of control (GAK (human)) [%] | kinase still bound, per cent of control (LIMK2 (human)) [%] | kinase still bound, per cent of control (MAPK7 (human)) [%] | kinase still bound, per cent of control (MYLK (human)) [%] | kinase still bound, per cent of control (PLK1 (human)) [%] | kinase still bound, per cent of control (PLK3 (human)) [%] | kinase still bound, per cent of control (ROS1 (human)) [%] | kinase still bound, per cent of control (SLK (human)) [%] | kinase still bound, per cent of control (STK33 (human)) [%] | kinase still bound, per cent of control (TNK1 (human)) [%] | kinase still bound, per cent of control (TTK (human)) [%] | kinase still bound, per cent of control (IGF1R (human)) [%] | kinase still bound, per cent of control (LATS1 (human)) [%] | kinase still bound, per cent of control (MAP2K3 (human)) [%] | kinase still bound, per cent of control (MYO3B (human)) [%] | kinase still bound, per cent of control (PAK1 (human)) [%] |
| --- | --- | --- | --- | --- | --- | --- | --- | --- | --- | --- | --- | --- | --- | --- | --- | --- | --- | --- | --- | --- |
| COc1cc(C(=O)NC2CCN(C)CC2)ccc1Nc1ncc2c(n1)N(C1CCCC1)[C@@H]1CCC[C@@H]1C(=O)N2C | 22 | 12 | 2.4 | 2.8 | 13 | 8.3 | 0.6 | 2.6 | 15 | 0 | 31 | 5.8 | 11 | 21 | 28 |  |  |  |  |  |
| O=C1NC(=O)C(=Cc2ccc(-c3ccc([N+](=O)[O-])cc3)o2)C(=O)N1 |  |  |  |  |  |  |  |  |  |  |  |  |  |  |  | 34 | 0 | 15 | 28 | 17 |
